# Test results reported in patent US20150344540A1, “NOVEL GLP-1 RECEPTOR AGONISTS WITH CHOLESTEROL EFFLUX ACTIVITY” (NOVO NORDISK A/S, priority 2012, published 2015).
# Where a SMILES comes first, the peptide text is derived from it. [ ]: non-standard residue; d: D form. Aib = CC(C)(N)C(=O)O
# Test system: Mouse monocyte/macrophage cell line, RAW 264.7
# Test: Cholesterol efflux assay (3H-cholesterol, macrophage cell line)
# Format: cell-based
# Conditions: RAW 264.7, 4 hrs incubation, 0.1% human serum albumin, ABCA1-mediated efflux
row,SMILES,4 h Cholesterol Efflux Emax
1,"CC[C@H](C)[C@H](NC(=O)[C@H](Cc1ccccc1)NC(=O)[C@H](CC(C)C)NC(=O)[C@H](CCCNC(=N)N)NC(=O)[C@@H](NC(=O)[C@H](C)NC(=O)[C@H](CCC(=O)O)NC(=O)CNC(=O)[C@H](CCC(=O)O)NC(=O)[C@H](CCSC)NC(=O)[C@H](CCC(N)=O)NC(=O)[C@H](CCCCN)NC(=O)[C@H](CO)NC(=O)[C@H](CC(C)C)NC(=O)[C@H](CC(=O)O)NC(=O)[C@H](CO)NC(=O)[C@@H](NC(=O)[C@H](Cc1ccccc1)NC(=O)[C@@H](NC(=O)CNC(=O)[C@H](CCC(=O)O)NC(=O)C(C)(C)NC(=O)[C@@H](N)Cc1c[nH]cn1)[C@@H](C)O)[C@@H](C)O)C(C)C)C(=O)N[C@@H](CCC(=O)O)C(=O)N[C@@H](Cc1c[nH]c2ccccc12)C(=O)N[C@@H](CC(C)C)C(=O)N[C@@H](CCCCN)C(=O)N[C@@H](CC(N)=O)C(=O)N[C@@H](CCCCN)C(=O)NC(C)(C)C(=O)N[C@@H](CC(C)C)C(=O)N[C@@H](CCC(=O)O)C(=O)N[C@@H](Cc1ccccc1)C(=O)N[C@@H](CC(C)C)C(=O)N[C@@H](CCC(=O)O)C(=O)N[C@@H](CC(C)C)C(=O)N[C@@H](CC(C)C)C(N)=O [Compound 12, [Aib2,Gly16,Lys29,Aib30,Leu31,Glu32,Phe33,Leu34,Glu35,Leu36,Leu371-Exendin-4-(1-37)-peptide amide] (H-H[Aib]EGTFTSDLSKQMEGEAVRLFIEWLKNK[Aib]LEFLELL-NH2; N-terminus assumed)",86%
2,"CC[C@H](C)[C@H](NC(=O)[C@H](Cc1ccccc1)NC(=O)[C@H](CCC(=O)O)NC(=O)[C@H](CCCNC(=N)N)NC(=O)[C@@H](NC(=O)[C@H](C)NC(=O)[C@H](CCC(=O)O)NC(=O)[C@H](CCC(=O)O)NC(=O)[C@H](CCC(=O)O)NC(=O)[C@H](CCSC)NC(=O)[C@H](CCC(N)=O)NC(=O)[C@H](CCCCN)NC(=O)[C@H](CO)NC(=O)[C@H](CC(C)C)NC(=O)[C@H](CC(=O)O)NC(=O)[C@H](CO)NC(=O)[C@@H](NC(=O)[C@H](Cc1ccccc1)NC(=O)[C@@H](NC(=O)CNC(=O)[C@H](CCC(=O)O)NC(=O)C(C)(C)NC(=O)[C@@H](N)Cc1c[nH]cn1)[C@@H](C)O)[C@@H](C)O)C(C)C)C(=O)N[C@@H](CCC(=O)O)C(=O)N[C@@H](Cc1c[nH]c2ccccc12)C(=O)N[C@@H](CC(C)C)C(=O)N[C@@H](CCCCN)C(=O)N[C@@H](CC(N)=O)C(=O)N[C@@H](CCCCN)C(=O)NCC(=O)N[C@@H](CC(C)C)C(=O)N[C@@H](CCC(=O)O)C(=O)N[C@@H](Cc1ccccc1)C(=O)N[C@@H](CC(C)C)C(=O)N[C@@H](CCC(=O)O)C(=O)N[C@@H](CC(C)C)C(=O)N[C@@H](CC(C)C)C(N)=O [Compound 33, [Aib2,Glu21,Lys29,Leu31,Glu32,Phe33,Leu34,Glu35,Leu36,Leu371-Exendin-4-(1-37)-peptide amide] (H-H[Aib]EGTFTSDLSKQMEEEAVREFIEWLKNKGLEFLELL-NH2; N-terminus assumed)",87%
3,"CC[C@H](C)[C@H](NC(=O)[C@H](Cc1ccccc1)NC(=O)[C@H](CCC(=O)O)NC(=O)[C@H](CCCCN)NC(=O)[C@@H](NC(=O)[C@H](C)NC(=O)[C@H](CCC(=O)O)NC(=O)CNC(=O)[C@H](CCC(=O)O)NC(=O)[C@H](CC(C)C)NC(=O)[C@H](Cc1ccc(O)cc1)NC(=O)[C@H](CO)NC(=O)[C@H](CO)NC(=O)[C@@H](NC(=O)[C@H](CC(=O)O)NC(=O)[C@H](CO)NC(=O)[C@@H](NC(=O)[C@H](Cc1ccccc1)NC(=O)[C@@H](NC(=O)CNC(=O)[C@H](CCC(=O)O)NC(=O)C(C)(C)NC(=O)[C@@H](N)Cc1c[nH]cn1)[C@@H](C)O)[C@@H](C)O)C(C)C)C(C)C)C(=O)N[C@@H](CCCCN)C(=O)N[C@@H](Cc1c[nH]c2ccccc12)C(=O)N[C@@H](CC(C)C)C(=O)N[C@H](C(=O)N[C@@H](CCC(=O)O)C(=O)N[C@@H](CCCCN)C(=O)N[C@@H](CC(C)C)C(=O)N[C@@H](CCCCN)C(=O)N[C@@H](CCC(=O)O)C(=O)N[C@@H](Cc1ccccc1)C(=O)N[C@@H](CC(C)C)C(N)=O)C(C)C [Compound 85, [Aib8,Glu23,Val25,Lys30,Glu34,Lys35,Leu36,Lys37]-GLP-1-(7-37)-peptidyl-Glu-Phe-Leu amide] (H-H[Aib]EGTFTSDVSSYLEGEAVKEFIKWLVEKLKEFL-NH2)",93%
